Experimental data from patent publication US9006221B2, “Method of modulating ship activity” (H. Lee Moffitt Cancer Center and Reserach Institute, Inc., priority 2008, dated 2015).

Tests used:
[1] = target: T1, PTEN (Homo sapiens, UniProt P60484); experiment: Malachite Green phosphate release assay, PTEN; format: biochemical
T1 construct: purchased
Method: The absorbance measurements shown correspond to liberated PO4 generated by recombinant PTEN (1.44 μg) when incubated with its substrate, PI (3,4,5)P3, as detected by a Malachite Green reporter.
(A) Purified, recombinant SHIP1 has significant activity as determined by the reduction in mean polarization units (mPu) in an FP assay designed for 5′-inositol phosphatases (Echelon Biosciences, Salt Lake City, Utah.). Note that no significant reduction in mP is obtained when the enzyme buffer without SHIP1 is added to the FP assay (Buffer) or when purified SHIP1 is assayed in the absence of its PI(3,4,5)P3 substrate (SHIP1 only).
Assay of SHIP1 enzymatic activity: A fluorescent polarization (FP) assay that detects the 5′-inositol phosphatase activity of SHIP1 was developed based on a previously established protocol [Drees B E, et al., Comb Chem High Throughput Screen (2003) 6(4):321-330] and was obtained from Echelon Biosciences (Salt Lake City, USA). Modifications of the protocol included the application of SHIP1 in the assay and an increase in the concentration of MgCl2 to […] to maximize the activity of SHIP1 in this assay. […]

[2] = target: T2, SHIP2 (Homo sapiens, UniProt O15357); experiment: FP assay of SHIP2 enzymatic activity; format: biochemical
T2 sequence (O15357 1-1258): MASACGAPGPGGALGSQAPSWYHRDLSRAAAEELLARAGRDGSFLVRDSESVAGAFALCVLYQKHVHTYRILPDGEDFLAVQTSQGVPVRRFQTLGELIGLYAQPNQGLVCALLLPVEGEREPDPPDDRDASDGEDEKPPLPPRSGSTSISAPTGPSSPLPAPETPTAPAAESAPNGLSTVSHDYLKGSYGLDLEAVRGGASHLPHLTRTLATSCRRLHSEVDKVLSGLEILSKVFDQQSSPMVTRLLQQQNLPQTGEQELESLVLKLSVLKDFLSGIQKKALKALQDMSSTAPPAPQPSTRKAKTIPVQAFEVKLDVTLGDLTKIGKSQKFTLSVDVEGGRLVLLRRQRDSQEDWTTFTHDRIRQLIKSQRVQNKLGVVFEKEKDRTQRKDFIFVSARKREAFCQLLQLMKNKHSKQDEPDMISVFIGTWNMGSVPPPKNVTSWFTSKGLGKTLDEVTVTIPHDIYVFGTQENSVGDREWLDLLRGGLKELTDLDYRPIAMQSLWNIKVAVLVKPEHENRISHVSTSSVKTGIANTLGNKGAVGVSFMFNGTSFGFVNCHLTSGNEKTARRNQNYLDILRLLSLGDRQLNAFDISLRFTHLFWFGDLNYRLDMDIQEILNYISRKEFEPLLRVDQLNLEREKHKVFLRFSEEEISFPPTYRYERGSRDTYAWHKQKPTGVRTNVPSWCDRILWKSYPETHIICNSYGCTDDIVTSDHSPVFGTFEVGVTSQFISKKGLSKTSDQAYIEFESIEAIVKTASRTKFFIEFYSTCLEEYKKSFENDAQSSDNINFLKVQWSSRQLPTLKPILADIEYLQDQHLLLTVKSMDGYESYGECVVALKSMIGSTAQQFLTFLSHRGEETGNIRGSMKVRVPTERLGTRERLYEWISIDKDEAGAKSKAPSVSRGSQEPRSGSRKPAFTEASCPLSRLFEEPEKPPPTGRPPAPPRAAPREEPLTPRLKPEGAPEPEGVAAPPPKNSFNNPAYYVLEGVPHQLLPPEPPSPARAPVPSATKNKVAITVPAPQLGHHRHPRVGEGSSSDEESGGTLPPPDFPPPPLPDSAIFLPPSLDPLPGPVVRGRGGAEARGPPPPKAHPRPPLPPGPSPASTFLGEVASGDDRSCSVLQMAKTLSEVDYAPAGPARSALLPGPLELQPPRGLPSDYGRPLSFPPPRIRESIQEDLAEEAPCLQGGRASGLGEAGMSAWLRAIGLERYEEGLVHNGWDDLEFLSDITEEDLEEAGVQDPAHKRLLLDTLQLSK
Excerpt: No Compound—FP assay conducted with purified SHIP1 or SHIP2 as indicated in the absence of inhibitor. No Enzyme—FP assay conducted in SHIP buffer and fluorescent substrate in the absence of enzyme.
Thus far, none of the inhibitors have been identified as selective for SHIP1 over SHIP2. The majority of SHIP inhibitors identified show selectivity for 5′ inositol phosphatases and thus might be used to target SHIP1 or SHIP2 activity.
Assay of SHIP1 enzymatic activity: A fluorescent polarization (FP) assay that detects the 5′-inositol phosphatase activity of SHIP1 was developed based on a previously established protocol [Drees B E, et al., Comb Chem High Throughput Screen (2003) 6(4):321-330] and was obtained from Echelon Biosciences (Salt Lake City, USA). Modifications of the protocol included the application of SHIP1 in the assay and an increase in the concentration of MgCl2 to […] to maximize the activity of SHIP1 in this assay. Each enzymatic reaction was performed in a 96 well working plate and added in the following order and concentration: Recombinant SHIP1 (0.1 μg) in PBS+20 mM MgCl2, 100 μM of each individual compound from the NCI Diversity Set and then PI(3,4,5)P3 substrate diluted 1:10 in H2O. The enzymatic reaction was incubated for 30 min at room temperature. The detector, reaction mixture and probe were then combined according to the SHIP2 protocol. […]

T1 sequence (P60484 whole entry, species assumed): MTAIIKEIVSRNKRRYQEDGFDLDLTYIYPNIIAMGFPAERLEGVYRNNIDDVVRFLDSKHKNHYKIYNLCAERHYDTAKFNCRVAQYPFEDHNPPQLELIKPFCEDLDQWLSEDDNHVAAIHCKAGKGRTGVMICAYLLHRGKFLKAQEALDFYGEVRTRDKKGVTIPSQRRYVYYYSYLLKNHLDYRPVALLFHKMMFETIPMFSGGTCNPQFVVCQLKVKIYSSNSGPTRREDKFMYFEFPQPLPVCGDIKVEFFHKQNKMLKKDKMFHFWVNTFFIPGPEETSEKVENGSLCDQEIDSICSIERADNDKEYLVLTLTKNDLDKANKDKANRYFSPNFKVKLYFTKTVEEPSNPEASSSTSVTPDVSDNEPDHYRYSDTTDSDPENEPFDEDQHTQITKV

inhibition of PTEN ([1]; at 100 μM, Malachite Green reporter, recombinant PTEN 1.44 μg) | SMILES | inhibition of PTEN activity ([1]; at 1 mM, Malachite Green assay) | inhibition of SHIP2 enzymatic activity [2]
 | CC(C)CCC[C@@H](C)[C@H]1CC[C@H]2[C@@H]3CC[C@H]4C[C@H](N)CC[C@]4(C)[C@H]3CC[C@]12C [NSC23922, (3R,5S,8R,9S,10S,13R,14S,17R)-10,13-dimethyl-17-[(2R)-6-methylheptan-2-yl]-2,3,4,5,6,7,8,9,11,12,14,15,16,17-tetradecahydro-1H-cyclopenta[a]phenanthren-3-amine] | fails to inhibit | inhibit both SHIP1 and SHIP2 enzymatic activity
no significant inhibition | OC(c1cc(-c2ccccc2)nc2c1ccc1ccccc12)C1CCCCN1 (stereo not shown) [NSC13480, (2-phenylbenzo[h]quinolin-4-yl)-piperidin-2-ylmethanol] |  | inhibit both SHIP1 and SHIP2 enzymatic activity
